How the values were obtained:
Assay type in all cases: biochemical
[1] = molecular target: T1, BACINT_01033-CE1 (Bi1033-CE1) (Bacteroides intestinalis, UniProt B3C969); test: ferulic acid release, HPLC-DAD; details: 200 uM substrate, 50 nM enzyme, 50 mM sodium citrate, 150 mM NaCl, pH 6.5, 37 °C, 10 min
T1 construct: dimer; N-terminal Ig-like domain, esterase domain residues 126-383

[2] = molecular target: T2, BACINT_01038-CE6/CE1 (Bi1038-CE6/CE1) (Bacteroides intestinalis, UniProt B3C974); test: ferulic acid release, HPLC-DAD; details: […] substrate, […] enzyme, […] sodium citrate, […] NaCl, pH […] °C, […] min
T2 construct: two modules (CE6, CE1)

[3] = molecular target: T3, BACINT_01042-GH3 (Bi1042-GH3) (Bacteroides intestinalis, UniProt B3C978); test: xylose release, HPAEC-PAD; details: pH […] °C, […] h, […] enzyme
T3 sequence (B3C978 19-862): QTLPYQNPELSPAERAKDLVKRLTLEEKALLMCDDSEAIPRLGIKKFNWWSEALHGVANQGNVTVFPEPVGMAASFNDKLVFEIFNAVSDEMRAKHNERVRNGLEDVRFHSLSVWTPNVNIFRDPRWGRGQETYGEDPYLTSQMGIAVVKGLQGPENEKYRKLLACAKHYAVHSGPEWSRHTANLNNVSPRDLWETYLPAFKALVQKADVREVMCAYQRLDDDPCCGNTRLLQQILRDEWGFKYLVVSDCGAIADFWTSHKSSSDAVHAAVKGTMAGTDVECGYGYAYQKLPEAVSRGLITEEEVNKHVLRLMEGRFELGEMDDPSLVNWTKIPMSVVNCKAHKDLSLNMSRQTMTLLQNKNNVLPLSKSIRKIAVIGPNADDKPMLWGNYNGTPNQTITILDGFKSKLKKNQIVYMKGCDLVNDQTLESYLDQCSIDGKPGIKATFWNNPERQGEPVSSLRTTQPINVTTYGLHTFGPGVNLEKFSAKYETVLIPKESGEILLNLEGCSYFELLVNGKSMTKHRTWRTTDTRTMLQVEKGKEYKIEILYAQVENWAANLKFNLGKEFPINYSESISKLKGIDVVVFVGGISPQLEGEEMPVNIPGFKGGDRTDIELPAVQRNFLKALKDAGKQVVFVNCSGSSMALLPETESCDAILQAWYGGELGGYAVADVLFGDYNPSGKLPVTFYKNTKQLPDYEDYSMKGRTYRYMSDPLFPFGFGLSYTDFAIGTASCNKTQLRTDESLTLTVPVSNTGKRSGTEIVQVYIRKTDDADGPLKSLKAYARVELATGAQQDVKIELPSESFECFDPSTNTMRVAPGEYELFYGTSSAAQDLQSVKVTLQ

[4] = molecular target: T2, BACINT_01038-CE6/CE1 (Bi1038-CE6/CE1); test: pNP release at […] nm; details: […] substrate, […] enzyme, […] MOPS pH […] °C
[5] = molecular target: T4, BACINT_01039-CE1 (Bi1039-CE1) (Bacteroides intestinalis, UniProt B3C975); test: pNP release at […] nm; details: 1 mM substrate, 50 nM enzyme, 0.1 M MOPS pH 7.5, 37 °C
T4 construct: dimer; crystal structure residues 25-382, esterase domain 126-382
T4 sequence (B3C975 25-382): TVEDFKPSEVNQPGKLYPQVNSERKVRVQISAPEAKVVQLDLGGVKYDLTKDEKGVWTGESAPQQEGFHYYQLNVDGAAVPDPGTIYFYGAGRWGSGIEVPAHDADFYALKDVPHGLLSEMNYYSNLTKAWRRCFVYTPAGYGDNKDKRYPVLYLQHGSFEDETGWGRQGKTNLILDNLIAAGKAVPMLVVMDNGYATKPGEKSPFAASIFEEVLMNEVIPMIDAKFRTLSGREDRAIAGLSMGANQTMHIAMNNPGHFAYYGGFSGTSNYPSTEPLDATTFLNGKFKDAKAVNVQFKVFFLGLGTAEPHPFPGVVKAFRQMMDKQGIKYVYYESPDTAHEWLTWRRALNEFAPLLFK

T2 sequence (B3C974 59-680): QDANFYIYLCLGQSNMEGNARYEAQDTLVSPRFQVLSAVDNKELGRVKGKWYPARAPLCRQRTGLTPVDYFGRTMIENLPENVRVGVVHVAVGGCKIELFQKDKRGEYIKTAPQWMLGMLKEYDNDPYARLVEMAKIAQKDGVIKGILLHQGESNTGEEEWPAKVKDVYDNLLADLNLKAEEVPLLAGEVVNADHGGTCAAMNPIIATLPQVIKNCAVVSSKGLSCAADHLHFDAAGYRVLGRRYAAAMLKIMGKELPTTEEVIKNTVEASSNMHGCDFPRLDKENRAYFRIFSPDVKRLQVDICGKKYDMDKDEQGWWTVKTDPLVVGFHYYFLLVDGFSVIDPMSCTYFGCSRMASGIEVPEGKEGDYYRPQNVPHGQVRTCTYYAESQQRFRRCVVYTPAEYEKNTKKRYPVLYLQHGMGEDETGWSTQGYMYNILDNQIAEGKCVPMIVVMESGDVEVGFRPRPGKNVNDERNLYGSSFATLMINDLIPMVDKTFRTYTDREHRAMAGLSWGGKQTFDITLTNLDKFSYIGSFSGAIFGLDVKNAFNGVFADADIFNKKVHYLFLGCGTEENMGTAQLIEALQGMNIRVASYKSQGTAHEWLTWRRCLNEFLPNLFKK
T1 sequence (B3C969 24-387): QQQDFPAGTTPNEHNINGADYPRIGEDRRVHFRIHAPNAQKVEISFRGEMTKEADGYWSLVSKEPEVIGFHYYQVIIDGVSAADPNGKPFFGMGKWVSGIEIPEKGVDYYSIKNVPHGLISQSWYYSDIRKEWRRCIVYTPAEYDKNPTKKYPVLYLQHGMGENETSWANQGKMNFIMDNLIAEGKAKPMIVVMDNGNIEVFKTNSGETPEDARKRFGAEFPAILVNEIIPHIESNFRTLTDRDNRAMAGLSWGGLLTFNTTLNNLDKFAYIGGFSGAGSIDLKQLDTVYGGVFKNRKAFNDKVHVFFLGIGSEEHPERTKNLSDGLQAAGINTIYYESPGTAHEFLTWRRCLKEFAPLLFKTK

COc1cc(/C=C/C(=O)OC[C@@H]2OC(O)[C@H](O)[C@H]2O)ccc1O (stereo partly drawn) [FA, feruloylated monosaccharide (FA)]
ferulic acid release, HPLC-DAD [1]: exhibits low ferulic acid cleavage activity on feruloylated monosaccharide (FA)

COc1cc(/C=C/C(=O)OC[C@@H]2O[C@@H](O[C@@H]3[C@@H](O)[C@H](O[C@@H]4COC(O)[C@H](O)[C@H]4O)OC[C@H]3O)[C@H](O)[C@H]2O)ccc1O (stereo partly drawn) [FAXX, feruloylated trisaccharide (FAXX)]
ferulic acid release, HPLC-DAD [2]: showed some activity on both FA and FAXX

OC1OC[C@@H](O[C@@H]2OC[C@@H](O)[C@H](O)[C@H]2O)[C@H](O)[C@H]1O (stereo partly drawn) [X2, xylobiose]
xylose release, HPAEC-PAD [3]: Bi1042-GH3 cleaves xylo-oligosaccharides to xylose or X1

OC1OC[C@@H](O[C@@H]2OC[C@@H](O[C@@H]3OC[C@@H](O)[C@H](O)[C@H]3O)[C@H](O)[C@H]2O)[C@H](O)[C@H]1O (stereo partly drawn) [X3, xylotriose]
xylose release, HPAEC-PAD [3]: Bi1042-GH3 cleaves xylo-oligosaccharides to xylose or X1

CC(=O)Oc1ccc([N+](=O)[O-])cc1 [pNP acetate]
pNP release at 400 nm [4]: activities on the synthetic substrates were from Bi1040-FAE and Bi1038-CE6/CE1, respectively | pNP release at 400 nm [5]: activity of the wild-type Bi1039-CE1, observed with pNP acetate as the substrate

From PMC7815789, “Degradation of complex arabinoxylans by human colonic Bacteroidetes” (Nature Communications, 2021)
